The text below walks through data of US6649797B2, “Compounds and methods of use to treat infectious diseases” (The Picower Institute for Medical Research, priority 1996, dated 2003).

The subject of experiment [1] is Plasmodium falciparum. The experiment is described as follows: Antimalarial activity in vitro, [3H]-hypoxanthine incorporation. Particulars: Plasmodium falciparum. It is filed as cell-based. The text has this: The antimalarial properties of the compounds of the invention can be analyzed by techniques, assays and experimental animal models well known in the art. For example, the inhibition of growth of Plasmodium falciparum in vitro by the compounds may be assessed by the hypoxanthine-incorporation method (Desjardins et al., 1979, Antimicrob. Ag. Chemother. 16:710-718). […] The in vivo efficacy of the compounds can also be tested in mouse models in which parasitemia is enumerated following administration of the compound (Ager, A. L. 1984, Rodent malaria models, pp 225-264. In Handbook of Experimental Pharmacology vol. 68, Antimalarial Drugs, Peters and Richards eds, Springer-Verlag, Berlin).
The antimalarial activity of the compounds was determined essentially as described in Desjardins et al. supra. Fifty μl of various concentrations of a compound of the invention, chloroquine, or pyrimethamine were added to the wells of microtiter plates, followed by 200 μl of ring-stage, synchronized, P. falciparum-infected erythrocytes (final hematocrit=1.5%, final parasitemia=1-5%). The plates were incubated for 24 hr in a candle jar kept at 37° C., and then 25 μl of [^3H]-hypoxanthine (Amersham, Arlington Heights, ILL.; 2.5 μl Ci/well) was added. The plates were then incubated for a further 24 hr, before harvesting onto Unifilter-96 GF/C filter-microplates (Packard; Meriden, Conn.). Twenty-five μl of Microscint scintillation fluid (Packard) was added to each well of the filter-microplate, which was subsequently counted in a Top-count microplate scintillation counter (Packard). The percent of [^3H]-hypoxanthine uptake relative to control infect-erythrocytes was used to determine the IC50 value for the compounds by non-linear regression for LD50 determination.

The subject of experiment [2] is Plasmodium berghei NYU-2. The experiment is described as follows: Four day suppression test in Plasmodium berghei infected mice. The conditions noted are these: 50 mg/kg i.p. once daily for four days, P≦0.01. In kind it is in vivo. The procedure:
FIG. 9. The activity of CNI-0294 against Plasmodium berghei infected mice. Female ND4 Swiss Webster mice were infected with infected erythrocytes and then treated once daily, for four days, with 50 mg/kg CNI-0294, or with distilled water. Six hours after the last dose, thin blood smears were made from each of the animals and the parasitemia was determined. The bars represent the median parasitemia (n=4 for controls and n=5 for treated).
The antimalarial activity of CNI-0294 in vivo was assessed by infecting female ND4 Swiss Webster mice with 100 μl of Plasmodium berghei NYU-2 infected mouse erythrocytes (50% parasitemia) by intraperitoneal injection. The animals were subsequently injected intraperitoneally once per day on days 1-4 of the infection with 0.5 ml water or 0.5 ml of 50 mg/kg CNI-0294 in water. Four hours after the final injection, small blood samples were taken from the tail, and thin smears stained with Dif-Quick (Baxter, Miami, Fla.). The parasitemia of control and treated animals was enumerated by inspection of at least 1000 erythrocytes in each animal.

For experiment [3], the target named is T1, pseudovirion-derived nucleoprotein complexes / karyopherin α (Human immunodeficiency virus type 1 group M subtype B, UniProt P04591).
T1 construct: composed exclusively of Gag (MA, CA, NC, p6) and Env (gp41 and gp120) proteins; endogenous in cells; host or cells: cytoplasmic lysate of H9 cells inoculated with HIV-like gag-env pseudovirions (Haffar et al. 1990)
The experiment is described as follows: Binding of pseudovirion-derived nucleoprotein complexes to GST-karyopherin α. In kind it is biochemical, HIV-1. The conditions noted are these: various concentrations. Here is the method: Cytoplasmic lysates of H9 cells infected with HIV-1RF (upper panel) or HIV-like pseudovirions (bottom panel) were treated for 2 hours with various concentrations of CNI-H0294, and were then mixed with GST-karyopherin α immobilized on glutathione Sepharose beads. HIV-1 DNA or RNA that co-precipitated with karyopherin α was quantified as in A and B.
H9 cells were infected with HIV-1 or HIV-like pseudovirions (Haffar, et al., 1990, J. Virol., 64:2653-2659) at a multiplicity adjusted according to p24 content (50 ng p24 per 10^6 cells) The MA NLS^− virus contains substitutions of isoleucine residues for lysines in positions 26 and 27 of MA in an NLHX backbone (Westervelt., et al., 1992, J. Virol. 66:2577-2582), thus inactivating the NLS. The Vpr^− virus has the initiating ATG of the vpr gene changed to GTG, thus abolishing expression of this gene. The ΔMA NLS pseudovirions have leucine substituting for lysine in position 28 of MA. This mutation abrogates nuclear translocation of HIV-1 gag RNA in growth-arrested H9 cells infected with pseudovirions. […]
Cytoplasmic extracts prepared from HIV-1-or pseudovirion-infected H9 cells were adjusted to 0.14 M NaCl, 0.1% Tween 20 and precleared with glutathione-Sepharose beads for 30 min. at room temperature. Karyopherin α was expressed as a fusion protein with glutathione S-transferase (GST) which can bind glutathione beads in solution. […]

Where two headings read alike, the source gives them in different places.

Take `CC(=O)c1cc(Nc2cc(C)[n+](C)c(N)n2)cc(C(C)=O)c1` [CNI-0294, 2-Amino-4-(3,5-diacetylphenyl)amino-1,6-dimethylpyrimidinium chloride]: the IC50 was 3.09 ± 0.3 µM in experiment [1] (FCR3, clone FCR-3, ± standard deviation, read-out: IC50); 1.79 ± 0.27 µM in experiment [1] (HB3, clone HB3, ± standard deviation, read-out: IC50); 4 ± 0.41 µM in experiment [1] (clone D10, ± standard deviation, read-out: IC50); 1.79 to 4 µM in experiment [1] (series of cloned parasites with different sensitivities to chloroquine or pyrimethamine, read-out: median inhibitory concentration (IC50)). In experiment [2], this molecule had a lowering of parasitemia of 10 fold. Besides, the “inhibition of binding of karyopherin α to pseudovirion-derived nucleoprotein complexes” value in experiment [3] was “did not inhibit”.
